# Test results from patent US12077503B2, “Substituted cyclic amides and their use as herbicides” (FMC CORPORATION, priority 2015, dated 2024).
# Key:
# Format in all cases: in vivo
# [1] = test system: barnyardgrass (Echinochloa crus-galli); test: Test G Pre-Emergence Protocol; conditions: Echinochloa crus-galli, pre-emergence, 312 h, evaluated after 13 days; for pest or weed control at 15.625 g/ha: 15.625 g ai/ha, read-out: Barnyard grass damage rating (100=total damage to plant; 0=no damage to plant); for pest or weed control at 62.5 g/ha: 62.5 g ai/ha, 100=total damage to plant, 0=no damage to plant, read-out: plant damage rating, Barnyardgrass; for pest or weed control at 250 g/ha: 250 g ai/ha, read-out: Barnyardgrass damage rating (100=total damage to plant; 0=no damage to plant)
# Outline: (§1)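 Scores are visual damage ratings from 0 (no damage) to 100 (total plant kill), taken 13 days after treatment. Compound was sprayed one day post-sowing at 15.625, 62.5 or 250 g/ha in 50:50 acetone/water with 0.5% Tween 20.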
# corn (Zea mays) [2] = test: Test G Pre-Emergence Protocol; conditions: Zea mays, pre-emergence, 312 h, evaluated after 13 days; for plant injury at 15.625 g/ha: 15.625 g ai/ha; for plant injury at 15.625 g/ha / plant injury at 250 g/ha: read-out: Corn damage rating (100=total damage to plant; 0=no damage to plant); for plant injury at 62.5 g/ha: 62.5 g ai/ha, 100=total damage to plant, 0=no damage to plant, read-out: plant damage rating, Corn; for plant injury at 250 g/ha: 250 g ai/ha
# Outline: as §1
# [3] = test system: giant foxtail (Setaria faberi); test: Test G Pre-Emergence Protocol; conditions: Setaria faberi, pre-emergence, 312 h, evaluated after 13 days; for pest or weed control at 15.625 g/ha: 15.625 g ai/ha; for pest or weed control at 15.625 g/ha / pest or weed control at 250 g/ha: read-out: Foxtail, Giant damage rating (100=total damage to plant; 0=no damage to plant); for pest or weed control at 62.5 g/ha: 62.5 g ai/ha, 100=total damage to plant, 0=no damage to plant, read-out: plant damage rating, Foxtail, Giant; for pest or weed control at 250 g/ha: 250 g ai/ha
# Outline: as §1
# [4] = test system: ivy-leaved morning glory (Ipomoea hederacea); test: Test G Pre-Emergence Protocol; conditions: Ipomoea, pre-emergence, 312 h, evaluated after 13 days; for pest or weed control at 15.625 g/ha: 15.625 g ai/ha, read-out: Morning-glory, Ivy-leaved damage rating (100=total damage to plant; 0=no damage to plant); for pest or weed control at 62.5 g/ha: 62.5 g ai/ha, 100=total damage to plant, 0=no damage to plant, read-out: plant damage rating, Morningglory, Ivy-leaved; for pest or weed control at 250 g/ha: 250 g ai/ha, read-out: Morningglory, Ivy-leaved damage rating (100=total damage to plant; 0=no damage to plant)
# Outline: as §1
# [5] = test system: redroot pigweed (Amaranthus retroflexus); test: Test G Pre-Emergence Protocol; conditions: Amaranthus retroflexus, pre-emergence, 312 h, evaluated after 13 days; for pest or weed control at 15.625 g/ha: 15.625 g ai/ha; for pest or weed control at 15.625 g/ha / pest or weed control at 250 g/ha: read-out: Pigweed, Redroot damage rating (100=total damage to plant; 0=no damage to plant); for pest or weed control at 62.5 g/ha: 62.5 g ai/ha, 100=total damage to plant, 0=no damage to plant, read-out: plant damage rating, Pigweed, Redroot; for pest or weed control at 250 g/ha: 250 g ai/ha
# Outline: as §1
# [6] = test system: velvetleaf (Abutilon theophrasti); test: Test G Pre-Emergence Protocol; conditions: Abutilon theophrasti, pre-emergence, 312 h, evaluated after 13 days; for pest or weed control at 15.625 g/ha: 15.625 g ai/ha; for pest or weed control at 15.625 g/ha / pest or weed control at 250 g/ha: read-out: Velvetleaf damage rating (100=total damage to plant; 0=no damage to plant); for pest or weed control at 62.5 g/ha: 62.5 g ai/ha, 100=total damage to plant, 0=no damage to plant, read-out: plant damage rating, Velvetleaf; for pest or weed control at 250 g/ha: 250 g ai/ha
# Outline: as §1
# [7] = test system: barnyardgrass (Echinochloa crus-galli); test: Test G Post-Emergence Protocol; conditions: Echinochloa crus-galli, post-emergence, 312 h; for pest or weed control at 15.625 g/ha: 15.625 g ai/ha, evaluated after 13 days (100=total damage to plant; 0=no damage to plant), read-out: Barnyardgrass damage rating; for pest or weed control at 62.5 g/ha: 62.5 g ai/ha, read-out: Barnyardgrass damage rating (100=total damage to plant; 0=no damage to plant); for pest or weed control at 62.5 g/ha / pest or weed control at 250 g/ha: evaluated after 13 days; for pest or weed control at 250 g/ha: 250 g ai/ha, read-out: damage to plant, Barnyardgrass (100=total damage to plant; 0=no damage to plant)
# Outline: (§2)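 A glasshouse post-emergence test: 8-day-old plants sprayed at 15.625, 62.5 or 250 g/ha, then grown at 24/16 °C day/night with 14 h light and 65% humidity. Damage rated 13 days later, 0–100.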
# corn (Zea mays) [8] = test: Test G Post-Emergence Protocol; conditions: Zea mays, post-emergence, 312 h; for plant injury at 15.625 g/ha: 15.625 g ai/ha, evaluated after 13 days (100=total damage to plant; 0=no damage to plant), read-out: Corn damage rating; for plant injury at 62.5 g/ha: 62.5 g ai/ha, read-out: Corn damage rating (100=total damage to plant; 0=no damage to plant); for plant injury at 62.5 g/ha / plant injury at 250 g/ha: evaluated after 13 days; for plant injury at 250 g/ha: 250 g ai/ha, read-out: damage to plant, Corn (100=total damage to plant; 0=no damage to plant)
# Outline: as §2
# [9] = test system: giant foxtail (Setaria faberi); test: Test G Post-Emergence Protocol; conditions: Setaria faberi, post-emergence, 312 h; for pest or weed control at 15.625 g/ha: 15.625 g ai/ha, evaluated after 13 days (100=total damage to plant; 0=no damage to plant), read-out: Foxtail, Giant damage rating; for pest or weed control at 62.5 g/ha: 62.5 g ai/ha, read-out: Foxtail, Giant damage rating (100=total damage to plant; 0=no damage to plant); for pest or weed control at 62.5 g/ha / pest or weed control at 250 g/ha: evaluated after 13 days; for pest or weed control at 250 g/ha: 250 g ai/ha, read-out: damage to plant, Foxtail, Giant (100=total damage to plant; 0=no damage to plant)
# Outline: as §2
# [10] = test system: ivy-leaved morning glory (Ipomoea hederacea); test: Test G Post-Emergence Protocol; conditions: Ipomoea, post-emergence, 312 h; for pest or weed control at 15.625 g/ha: 15.625 g ai/ha, evaluated after 13 days (100=total damage to plant; 0=no damage to plant), read-out: Morningglory, Ivy-leaved damage rating; for pest or weed control at 62.5 g/ha: 62.5 g ai/ha, read-out: Morningglory, Ivy-leaved damage rating (100=total damage to plant; 0=no damage to plant); for pest or weed control at 62.5 g/ha / pest or weed control at 250 g/ha: evaluated after 13 days; for pest or weed control at 250 g/ha: 250 g ai/ha, read-out: damage to plant, Morningglory, Ivy-leaved (100=total damage to plant; 0=no damage to plant)
# Outline: as §2
# [11] = test system: redroot pigweed (Amaranthus retroflexus); test: Test G Post-Emergence Protocol; conditions: Amaranthus retroflexus, post-emergence, 312 h; for pest or weed control at 15.625 g/ha: 15.625 g ai/ha, evaluated after 13 days (100=total damage to plant; 0=no damage to plant), read-out: Pigweed, Redroot damage rating; for pest or weed control at 62.5 g/ha: 62.5 g ai/ha, read-out: Pigweed, Redroot damage rating (100=total damage to plant; 0=no damage to plant); for pest or weed control at 62.5 g/ha / pest or weed control at 250 g/ha: evaluated after 13 days; for pest or weed control at 250 g/ha: 250 g ai/ha, read-out: damage to plant, Pigweed, Redroot (100=total damage to plant; 0=no damage to plant)
# Outline: as §2
# [12] = test system: velvetleaf (Abutilon theophrasti); test: Test G Post-Emergence Protocol; conditions: Abutilon theophrasti, post-emergence, 312 h; for pest or weed control at 15.625 g/ha: 15.625 g ai/ha, evaluated after 13 days (100=total damage to plant; 0=no damage to plant), read-out: Velvetleaf damage rating; for pest or weed control at 62.5 g/ha: 62.5 g ai/ha, read-out: Velvetleaf damage rating (100=total damage to plant; 0=no damage to plant); for pest or weed control at 62.5 g/ha / pest or weed control at 250 g/ha: evaluated after 13 days; for pest or weed control at 250 g/ha: 250 g ai/ha, read-out: damage to plant, Velvetleaf (100=total damage to plant; 0=no damage to plant)
# Outline: as §2
Structure (SMILES),pest or weed control at 15.625 g/ha [1] [%],pest or weed control at 62.5 g/ha [1] [%],pest or weed control at 250 g/ha [1] [%],plant injury at 15.625 g/ha (corn (Zea mays) [2]) [%],plant injury at 62.5 g/ha (corn (Zea mays) [2]) [%],plant injury at 250 g/ha (corn (Zea mays) [2]) [%],pest or weed control at 15.625 g/ha [3] [%],pest or weed control at 62.5 g/ha [3] [%],pest or weed control at 250 g/ha [3] [%],pest or weed control at 15.625 g/ha [4] [%],pest or weed control at 62.5 g/ha [4] [%],pest or weed control at 250 g/ha [4] [%],pest or weed control at 15.625 g/ha [5] [%],pest or weed control at 62.5 g/ha [5] [%],pest or weed control at 250 g/ha [5] [%],pest or weed control at 15.625 g/ha [6] [%],pest or weed control at 62.5 g/ha [6] [%],pest or weed control at 250 g/ha [6] [%],pest or weed control at 15.625 g/ha [7] [%],pest or weed control at 62.5 g/ha [7] [%],also measured
CCc1nnc(NC(=O)[C@@H]2C(=O)N(C)C[C@H]2c2ccc(C(F)(F)F)cc2)s1 (racemic) [Compound 1558],0,0,10,0,0,0,0,0,0,0,0,0,0,0,10,0,0,0,0,10,pest or weed control at 250 g/ha [7]: 20%; plant injury at 15.625 g/ha (corn (Zea mays) [8]): 0%; plant injury at 62.5 g/ha (corn (Zea mays) [8]): 0%; plant injury at 250 g/ha (corn (Zea mays) [8]): 0%; pest or weed control at 15.625 g/ha [9]: 0%; pest or weed control at 62.5 g/ha [9]: 0%; pest or weed control at 250 g/ha [9]: 0%; pest or weed control at 15.625 g/ha [10]: 0%; pest or weed control at 62.5 g/ha [10]: 0%; pest or weed control at 250 g/ha [10]: 0%; pest or weed control at 15.625 g/ha [11]: 0%; pest or weed control at 62.5 g/ha [11]: 0%; pest or weed control at 250 g/ha [11]: 0%; pest or weed control at 15.625 g/ha [12]: 0%; pest or weed control at 62.5 g/ha [12]: 0%; pest or weed control at 250 g/ha [12]: 0%
CN1C[C@@H](c2ccc(C(F)(F)F)cc2)[C@H](C(=O)Nc2cccc(C(F)(F)F)n2)C1=O (racemic) [Compound 1563],0,0,0,0,0,0,0,0,0,0,0,0,0,0,0,0,0,0,0,0,pest or weed control at 250 g/ha [7]: 0%; plant injury at 15.625 g/ha (corn (Zea mays) [8]): 0%; plant injury at 62.5 g/ha (corn (Zea mays) [8]): 0%; plant injury at 250 g/ha (corn (Zea mays) [8]): 0%; pest or weed control at 15.625 g/ha [9]: 0%; pest or weed control at 62.5 g/ha [9]: 0%; pest or weed control at 250 g/ha [9]: 0%; pest or weed control at 15.625 g/ha [10]: 0%; pest or weed control at 62.5 g/ha [10]: 0%; pest or weed control at 250 g/ha [10]: 0%; pest or weed control at 15.625 g/ha [11]: 0%; pest or weed control at 62.5 g/ha [11]: 0%; pest or weed control at 250 g/ha [11]: 0%; pest or weed control at 15.625 g/ha [12]: 0%; pest or weed control at 62.5 g/ha [12]: 0%; pest or weed control at 250 g/ha [12]: 0%
CN1C[C@@H](c2ccc(C(F)(F)F)cc2)[C@H](C(=O)Nc2ncccn2)C1=O (racemic) [Compound 1564],0,0,0,0,0,10,0,0,0,0,0,0,0,0,0,0,0,0,0,0,pest or weed control at 250 g/ha [7]: 20%; plant injury at 15.625 g/ha (corn (Zea mays) [8]): 0%; plant injury at 62.5 g/ha (corn (Zea mays) [8]): 0%; plant injury at 250 g/ha (corn (Zea mays) [8]): 10%; pest or weed control at 15.625 g/ha [9]: 0%; pest or weed control at 62.5 g/ha [9]: 0%; pest or weed control at 250 g/ha [9]: 10%; pest or weed control at 15.625 g/ha [10]: 0%; pest or weed control at 62.5 g/ha [10]: 0%; pest or weed control at 250 g/ha [10]: 0%; pest or weed control at 15.625 g/ha [11]: 0%; pest or weed control at 62.5 g/ha [11]: 0%; pest or weed control at 250 g/ha [11]: 10%; pest or weed control at 15.625 g/ha [12]: 0%; pest or weed control at 62.5 g/ha [12]: 0%; pest or weed control at 250 g/ha [12]: 0%
